# Assay results as given in EP4389123A1 (priority 2022, dated 2024).
# Assays:
# [1] = molecular target: murine prion strain RML (Mus musculus, UniProt P04925); format: biochemical
# [2] = test system: Vole-CWD prion strain; set-up: species or system mice; details: mouse, in vivo
# [3] = test system: human prion strain causing Gerstmann-Sträussler-Scheinker syndrome (GSS); set-up: species or system mice; details: mouse, in vivo, ip
# [4] = test system: 22L; set-up: species or system mice; details: mouse, in vivo
# [5] = test system: 301C; set-up: species or system mice; details: mouse, in vivo
# [6] = test system: RML; set-up: species or system mice; details: mouse, in vivo
# Sequence of murine prion strain RML (P04925 23-230 limits assumed): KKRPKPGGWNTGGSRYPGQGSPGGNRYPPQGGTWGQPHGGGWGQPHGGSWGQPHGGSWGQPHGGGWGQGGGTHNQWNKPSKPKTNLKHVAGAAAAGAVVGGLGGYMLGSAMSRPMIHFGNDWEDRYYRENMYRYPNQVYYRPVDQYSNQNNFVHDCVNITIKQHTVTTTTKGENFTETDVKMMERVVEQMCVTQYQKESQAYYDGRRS
Compound,prion propagation inhibitory capacity [1],times more efficient as inhibitor [1] [times],increase in survival time [2] [%],increase in survival time [3] [%],survival time prolongation [4] [%],survival time prolongation [5] [%],increase in survival times [6] [%]
"C[n+]1ccc(-c2c3nc(c(-c4cc[n+](C)cc4)c4ccc([nH]4)c(-c4cc[n+](C)cc4)c4nc(c(-c5cc[n+](C)cc5)c5ccc2[nH]5)C=C4)C=C3)cc1 [TMPyP, reference compound]",showed prion propagation inhibitory capacity,,,,,,
"O=C(O)CCC1=C(CC(=O)O)c2cc3[nH]c(cc4nc(cc5[nH]c(cc1n2)c(CC(=O)O)c5CCC(=O)O)C(CC(=O)O)=C4CCC(=O)O)c(CC(=O)O)c3CCC(=O)O [UROI, uroporphyrin I]",showed prion propagation inhibitory capacity,125,11,> 200,10,12,30
